In ChEMBL document CHEMBL4507279, “Data for DCP probe BI-9627” (2021):

Tests used:
[1] = molecular target: Serine/threonine-protein kinase 4 (Homo sapiens) (UniProt Q13043); settings: Compound concentration 1000.0 nM
[2] = molecular target: Ephrin type-B receptor 3 (Homo sapiens) (UniProt P54753); settings: Compound concentration 1000.0 nM
[3] = molecular target: Tyrosine-protein kinase JAK1 (Homo sapiens) (UniProt P23458); settings: Compound concentration 1000.0 nM
[4] = system: Phosphatidylinositol 4,5-bisphosphate 3-kinase catalytic subunit alpha isoform (Homo sapiens), P42336 [E545A]; settings: Compound concentration 1000.0 nM
[5] = system: Tyrosine-protein kinase ABL1 (Homo sapiens), P00519 [T315I]; settings: Compound concentration 1000.0 nM
[6] = molecular target: Mitogen-activated protein kinase kinase kinase 15 (Homo sapiens) (UniProt Q6ZN16); settings: Compound concentration 1000.0 nM
[7] = molecular target: Dual serine/threonine and tyrosine protein kinase (Homo sapiens) (UniProt Q6XUX3); settings: Compound concentration 1000.0 nM
[8] = molecular target: Dual specificity mitogen-activated protein kinase kinase 1 (Homo sapiens) (UniProt Q02750); settings: Compound concentration 1000.0 nM
Sequence of Dual specificity mitogen-activated protein kinase kinase 1 (Homo sapiens) (Q02750 whole entry): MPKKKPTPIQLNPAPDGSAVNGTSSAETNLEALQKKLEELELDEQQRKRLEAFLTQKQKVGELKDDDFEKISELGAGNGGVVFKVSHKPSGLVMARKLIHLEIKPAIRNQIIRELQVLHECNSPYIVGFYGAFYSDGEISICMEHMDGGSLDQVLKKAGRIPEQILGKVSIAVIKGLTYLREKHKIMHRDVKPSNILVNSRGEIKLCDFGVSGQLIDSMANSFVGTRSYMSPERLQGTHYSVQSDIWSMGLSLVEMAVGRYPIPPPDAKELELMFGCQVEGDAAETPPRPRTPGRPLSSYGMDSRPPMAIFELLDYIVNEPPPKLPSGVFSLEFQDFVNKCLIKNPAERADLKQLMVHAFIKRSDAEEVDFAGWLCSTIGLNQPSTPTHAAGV

[9] = system: Receptor-type tyrosine-protein kinase FLT3 (Homo sapiens), P36888 [D835V]; settings: Compound concentration 1000.0 nM
[10] = molecular target: Tyrosine-protein kinase FRK (Homo sapiens) (UniProt P42685); settings: Compound concentration 1000.0 nM
Sequence of Tyrosine-protein kinase FRK (Homo sapiens) (P42685 whole entry): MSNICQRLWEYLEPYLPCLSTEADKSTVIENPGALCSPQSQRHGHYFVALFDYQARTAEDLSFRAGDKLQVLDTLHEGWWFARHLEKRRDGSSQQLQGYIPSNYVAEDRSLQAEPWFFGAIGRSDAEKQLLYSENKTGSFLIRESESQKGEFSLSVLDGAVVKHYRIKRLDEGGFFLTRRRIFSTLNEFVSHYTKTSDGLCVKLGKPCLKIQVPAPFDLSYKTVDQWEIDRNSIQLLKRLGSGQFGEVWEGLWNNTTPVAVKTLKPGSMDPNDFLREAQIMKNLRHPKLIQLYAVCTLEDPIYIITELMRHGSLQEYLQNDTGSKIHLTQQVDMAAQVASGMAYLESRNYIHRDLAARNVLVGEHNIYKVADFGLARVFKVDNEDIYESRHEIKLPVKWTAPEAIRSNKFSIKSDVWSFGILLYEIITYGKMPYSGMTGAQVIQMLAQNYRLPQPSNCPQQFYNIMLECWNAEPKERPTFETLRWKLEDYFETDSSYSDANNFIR

[11] = molecular target: Serine/threonine-protein kinase Nek9 (Homo sapiens) (UniProt Q8TD19); settings: Compound concentration 1000.0 nM
[12] = molecular target: Serine/threonine-protein kinase MRCK beta (Homo sapiens) (UniProt Q9Y5S2); settings: Compound concentration 1000.0 nM
[13] = system: Phosphatidylinositol 4,5-bisphosphate 3-kinase catalytic subunit alpha isoform (Homo sapiens), P42336 [H1047L]; settings: Compound concentration 1000.0 nM
[14] = molecular target: Receptor-type tyrosine-protein kinase FLT3 (Homo sapiens) (UniProt P36888); settings: Compound concentration 1000.0 nM
[15] = molecular target: Cyclin-dependent kinase-like 5 (Homo sapiens) (UniProt O76039); settings: Compound concentration 1000.0 nM
[16] = molecular target: Serine/threonine-protein kinase SIK1 (Homo sapiens) (UniProt P57059); settings: Compound concentration 1000.0 nM
Sequence of Serine/threonine-protein kinase SIK1 (Homo sapiens) (P57059 whole entry): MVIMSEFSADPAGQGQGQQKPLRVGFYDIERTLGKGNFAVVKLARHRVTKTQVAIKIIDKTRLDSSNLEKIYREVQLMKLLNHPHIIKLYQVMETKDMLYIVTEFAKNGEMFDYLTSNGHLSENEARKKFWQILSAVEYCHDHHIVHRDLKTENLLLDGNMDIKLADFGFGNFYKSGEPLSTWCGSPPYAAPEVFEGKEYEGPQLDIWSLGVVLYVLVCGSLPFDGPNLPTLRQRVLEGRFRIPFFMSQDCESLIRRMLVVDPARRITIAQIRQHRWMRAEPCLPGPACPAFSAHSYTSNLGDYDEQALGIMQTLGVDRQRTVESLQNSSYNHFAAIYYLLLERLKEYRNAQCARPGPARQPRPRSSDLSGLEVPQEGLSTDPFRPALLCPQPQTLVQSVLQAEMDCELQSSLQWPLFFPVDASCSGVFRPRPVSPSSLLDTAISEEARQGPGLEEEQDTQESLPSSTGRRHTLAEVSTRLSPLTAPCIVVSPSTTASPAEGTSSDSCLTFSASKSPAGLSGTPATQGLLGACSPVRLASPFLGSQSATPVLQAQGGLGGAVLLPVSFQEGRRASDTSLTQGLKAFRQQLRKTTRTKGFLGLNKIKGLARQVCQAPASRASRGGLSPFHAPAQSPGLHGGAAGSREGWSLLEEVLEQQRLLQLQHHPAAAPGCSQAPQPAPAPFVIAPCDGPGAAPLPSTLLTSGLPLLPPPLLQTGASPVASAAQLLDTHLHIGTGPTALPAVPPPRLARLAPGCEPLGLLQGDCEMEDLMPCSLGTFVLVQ

[17] = molecular target: Mitogen-activated protein kinase 13 (Homo sapiens) (UniProt O15264); settings: Compound concentration 1000.0 nM
[18] = molecular target: STE20/SPS1-related proline-alanine-rich protein kinase (Homo sapiens) (UniProt Q9UEW8); settings: Compound concentration 1000.0 nM
[19] = molecular target: Mitogen-activated protein kinase kinase kinase 14 (Homo sapiens) (UniProt Q99558); settings: Compound concentration 1000.0 nM
Sequence of Mitogen-activated protein kinase kinase kinase 14 (Homo sapiens) (Q99558 whole entry, looked up): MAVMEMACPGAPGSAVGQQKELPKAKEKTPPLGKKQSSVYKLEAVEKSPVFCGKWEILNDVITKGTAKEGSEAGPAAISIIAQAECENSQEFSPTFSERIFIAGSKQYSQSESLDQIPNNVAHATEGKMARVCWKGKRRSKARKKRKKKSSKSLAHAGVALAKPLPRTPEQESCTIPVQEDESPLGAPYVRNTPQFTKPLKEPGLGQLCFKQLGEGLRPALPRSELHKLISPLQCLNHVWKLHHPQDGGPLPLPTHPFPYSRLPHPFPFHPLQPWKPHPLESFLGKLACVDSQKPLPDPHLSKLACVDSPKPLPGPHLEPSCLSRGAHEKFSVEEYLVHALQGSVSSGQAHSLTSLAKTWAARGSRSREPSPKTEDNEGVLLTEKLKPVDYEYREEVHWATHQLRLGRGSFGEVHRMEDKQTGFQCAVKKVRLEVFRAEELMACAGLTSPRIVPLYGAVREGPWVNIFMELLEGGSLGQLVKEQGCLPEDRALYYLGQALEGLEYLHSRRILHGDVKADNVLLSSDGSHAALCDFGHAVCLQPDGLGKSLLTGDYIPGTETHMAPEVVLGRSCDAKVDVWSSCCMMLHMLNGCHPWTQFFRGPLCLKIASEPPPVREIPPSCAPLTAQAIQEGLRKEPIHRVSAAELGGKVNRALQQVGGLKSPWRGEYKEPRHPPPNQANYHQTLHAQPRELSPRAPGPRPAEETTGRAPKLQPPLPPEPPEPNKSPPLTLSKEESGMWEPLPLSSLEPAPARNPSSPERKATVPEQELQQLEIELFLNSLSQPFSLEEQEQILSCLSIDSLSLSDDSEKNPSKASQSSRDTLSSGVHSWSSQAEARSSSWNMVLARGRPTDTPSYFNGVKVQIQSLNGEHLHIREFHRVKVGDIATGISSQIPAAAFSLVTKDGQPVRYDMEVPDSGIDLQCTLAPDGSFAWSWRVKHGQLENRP

[20] = system: Mast/stem cell growth factor receptor Kit (Homo sapiens), P10721 [A829P]; settings: Compound concentration 1000.0 nM
[21] = molecular target: Calcium/calmodulin-dependent protein kinase type II subunit delta (Homo sapiens) (UniProt Q13557); settings: Compound concentration 1000.0 nM
[22] = molecular target: Macrophage-stimulating protein receptor (Homo sapiens) (UniProt Q04912); settings: Compound concentration 1000.0 nM
[23] = molecular target: Macrophage colony-stimulating factor 1 receptor (Homo sapiens) (UniProt P07333); settings: Compound concentration 1000.0 nM
[24] = molecular target: Cyclin-dependent kinase 17 (Homo sapiens) (UniProt Q00537); settings: Compound concentration 1000.0 nM
[25] = molecular target: Mitogen-activated protein kinase kinase kinase 19 (Homo sapiens) (UniProt Q56UN5); settings: Compound concentration 1000.0 nM
[26] = molecular target: Fibroblast growth factor receptor 3 (Homo sapiens) (UniProt P22607); settings: Compound concentration 1000.0 nM
[27] = molecular target: Cyclin-dependent kinase 4 (Homo sapiens) (UniProt P11802); settings: Compound concentration 1000.0 nM
[28] = molecular target: T1, Alpha-2A adrenergic receptor (Homo sapiens) (UniProt P08913); settings: Compound concentration 10.0 uM
T1 sequence (whole entry): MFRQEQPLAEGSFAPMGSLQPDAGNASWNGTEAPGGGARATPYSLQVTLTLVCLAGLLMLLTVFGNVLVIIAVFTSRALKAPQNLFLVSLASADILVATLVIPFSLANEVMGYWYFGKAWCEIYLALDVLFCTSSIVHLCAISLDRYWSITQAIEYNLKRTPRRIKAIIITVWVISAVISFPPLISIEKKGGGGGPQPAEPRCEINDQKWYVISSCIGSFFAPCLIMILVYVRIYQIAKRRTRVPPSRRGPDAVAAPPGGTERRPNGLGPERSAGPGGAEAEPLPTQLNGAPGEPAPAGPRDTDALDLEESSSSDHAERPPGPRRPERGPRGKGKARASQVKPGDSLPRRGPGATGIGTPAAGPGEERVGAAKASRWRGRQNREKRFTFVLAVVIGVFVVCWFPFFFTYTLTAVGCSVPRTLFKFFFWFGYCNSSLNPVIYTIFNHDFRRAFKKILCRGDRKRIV

[29] = molecular target: Serine/threonine-protein kinase MARK1 (Homo sapiens) (UniProt Q9P0L2); settings: Compound concentration 1000.0 nM
[30] = molecular target: Ephrin type-A receptor 3 (Homo sapiens) (UniProt P29320); settings: Compound concentration 1000.0 nM
Sequence of Ephrin type-A receptor 3 (Homo sapiens) (P29320 whole entry): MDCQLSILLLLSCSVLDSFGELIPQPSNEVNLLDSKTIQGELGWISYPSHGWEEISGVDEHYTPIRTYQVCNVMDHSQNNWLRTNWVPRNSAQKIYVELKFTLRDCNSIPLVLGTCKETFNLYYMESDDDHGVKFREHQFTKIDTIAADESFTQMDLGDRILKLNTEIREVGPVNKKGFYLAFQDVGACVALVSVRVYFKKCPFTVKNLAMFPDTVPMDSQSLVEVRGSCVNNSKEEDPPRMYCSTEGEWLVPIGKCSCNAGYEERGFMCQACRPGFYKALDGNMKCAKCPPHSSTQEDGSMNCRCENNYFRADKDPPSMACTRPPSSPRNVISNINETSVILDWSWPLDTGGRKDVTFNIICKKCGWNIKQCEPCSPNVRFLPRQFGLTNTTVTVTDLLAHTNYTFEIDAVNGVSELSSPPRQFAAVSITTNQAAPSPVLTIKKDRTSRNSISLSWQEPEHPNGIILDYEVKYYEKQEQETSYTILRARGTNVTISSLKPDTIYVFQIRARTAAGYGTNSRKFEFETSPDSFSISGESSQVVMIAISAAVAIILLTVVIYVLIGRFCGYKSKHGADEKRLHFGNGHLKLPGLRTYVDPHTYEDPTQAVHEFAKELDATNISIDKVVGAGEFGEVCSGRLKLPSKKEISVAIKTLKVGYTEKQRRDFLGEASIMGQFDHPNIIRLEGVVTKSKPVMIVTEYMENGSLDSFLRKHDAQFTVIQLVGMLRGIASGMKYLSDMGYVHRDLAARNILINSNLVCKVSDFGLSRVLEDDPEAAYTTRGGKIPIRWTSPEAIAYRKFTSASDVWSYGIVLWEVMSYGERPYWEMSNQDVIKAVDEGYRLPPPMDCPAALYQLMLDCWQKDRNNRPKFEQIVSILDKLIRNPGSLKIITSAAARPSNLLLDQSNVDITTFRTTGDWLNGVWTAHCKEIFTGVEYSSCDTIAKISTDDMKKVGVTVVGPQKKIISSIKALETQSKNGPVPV

[31] = molecular target: Serine/threonine-protein kinase 10 (Homo sapiens) (UniProt O94804); settings: Compound concentration 1000.0 nM
[32] = molecular target: Tyrosine-protein kinase TXK (Homo sapiens) (UniProt P42681); settings: Compound concentration 1000.0 nM
Sequence of Tyrosine-protein kinase TXK (Homo sapiens) (P42681 whole entry): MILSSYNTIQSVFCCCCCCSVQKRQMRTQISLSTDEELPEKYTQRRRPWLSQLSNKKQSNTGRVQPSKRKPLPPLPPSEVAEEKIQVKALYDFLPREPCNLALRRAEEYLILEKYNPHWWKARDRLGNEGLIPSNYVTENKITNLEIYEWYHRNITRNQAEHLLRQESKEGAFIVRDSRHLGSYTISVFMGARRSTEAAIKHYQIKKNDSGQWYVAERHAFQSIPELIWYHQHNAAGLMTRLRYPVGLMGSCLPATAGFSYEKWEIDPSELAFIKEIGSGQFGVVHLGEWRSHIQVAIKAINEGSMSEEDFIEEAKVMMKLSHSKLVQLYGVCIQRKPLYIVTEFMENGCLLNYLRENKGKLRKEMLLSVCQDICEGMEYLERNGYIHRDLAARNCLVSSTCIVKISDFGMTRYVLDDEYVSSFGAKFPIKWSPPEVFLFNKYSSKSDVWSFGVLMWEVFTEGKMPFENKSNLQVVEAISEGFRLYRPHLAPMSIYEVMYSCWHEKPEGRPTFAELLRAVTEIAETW

[33] = molecular target: Hormonally up-regulated neu tumor-associated kinase (Homo sapiens) (UniProt P57058); settings: Compound concentration 1000.0 nM
[34] = molecular target: Serine/threonine-protein kinase ULK3 (Homo sapiens) (UniProt Q6PHR2); settings: Compound concentration 1000.0 nM
[35] = molecular target: Cyclin-dependent kinase 3 (Homo sapiens) (UniProt Q00526); settings: Compound concentration 1000.0 nM
Sequence of Cyclin-dependent kinase 3 (Homo sapiens) (Q00526 whole entry, looked up): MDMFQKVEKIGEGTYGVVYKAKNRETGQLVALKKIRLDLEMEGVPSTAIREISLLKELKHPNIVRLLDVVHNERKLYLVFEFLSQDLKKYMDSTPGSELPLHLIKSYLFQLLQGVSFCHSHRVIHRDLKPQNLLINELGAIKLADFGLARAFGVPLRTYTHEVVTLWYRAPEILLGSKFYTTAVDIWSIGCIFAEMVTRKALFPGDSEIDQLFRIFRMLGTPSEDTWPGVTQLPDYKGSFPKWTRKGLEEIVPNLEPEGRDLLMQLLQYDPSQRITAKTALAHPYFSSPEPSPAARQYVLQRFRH

[36] = system: Receptor-type tyrosine-protein kinase FLT3 (Homo sapiens), P36888 [D835H]; settings: Compound concentration 1000.0 nM
[37] = molecular target: Serine/threonine-protein kinase 38 (Homo sapiens) (UniProt Q15208); settings: Compound concentration 1000.0 nM
Sequence of Serine/threonine-protein kinase 38 (Homo sapiens) (Q15208 2-465 limits assumed): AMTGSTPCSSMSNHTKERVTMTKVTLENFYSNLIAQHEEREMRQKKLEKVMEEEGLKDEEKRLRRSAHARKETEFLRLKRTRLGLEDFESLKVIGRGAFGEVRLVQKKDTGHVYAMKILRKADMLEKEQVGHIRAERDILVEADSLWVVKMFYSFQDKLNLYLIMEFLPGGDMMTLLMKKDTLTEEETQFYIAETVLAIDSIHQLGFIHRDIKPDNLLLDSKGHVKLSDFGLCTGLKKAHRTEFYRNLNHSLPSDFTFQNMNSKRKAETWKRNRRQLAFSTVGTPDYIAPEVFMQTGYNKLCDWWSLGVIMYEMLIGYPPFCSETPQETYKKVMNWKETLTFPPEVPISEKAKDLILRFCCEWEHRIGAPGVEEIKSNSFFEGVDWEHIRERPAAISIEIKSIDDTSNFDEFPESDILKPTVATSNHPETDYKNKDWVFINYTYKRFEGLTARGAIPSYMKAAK

[38] = molecular target: Serine/threonine-protein kinase DCLK1 (Homo sapiens) (UniProt O15075); settings: Compound concentration 1000.0 nM

CC(=O)N1CCC(c2ccc(C(=O)NC3=NCCN3)cc2C(F)(F)F)CC1 [BI 0054]
inactive: residual activity [1] 100% | residual activity [2] 93% | residual activity [3] 100% | residual activity [4] 100% | residual activity [5] 92% | residual activity [6] 93% | residual activity [7] 74% | residual activity [8] 100% | residual activity [9] 97% | residual activity [10] 97% | residual activity [11] 100% | residual activity [12] 100% | residual activity [13] 100% | residual activity [14] 100% | residual activity [15] 79% | residual activity [16] 100% | residual activity [17] 75% | residual activity [18] 100% | residual activity [19] 95% | residual activity [20] 100% | residual activity [21] 100% | residual activity [22] 80% | residual activity [23] 100% | residual activity [24] 89% | residual activity [25] 100% | residual activity [26] 100% | residual activity [27] 100% | inhibition [28] 4.92% | residual activity [29] 100% | residual activity [30] 95% | residual activity [31] 100% | residual activity [32] 82% | residual activity [33] 100% | residual activity [34] 89% | residual activity [35] 100% | residual activity [36] 93% | residual activity [37] 85% | residual activity [38] 89%

CC(=O)N1CCC(c2ccc(C(=O)NC(=N)N)cc2C(F)(F)F)CC1 [BI 9627]
inactive: residual activity [1] 98% | residual activity [2] 97% | residual activity [3] 100% | residual activity [4] 100% | residual activity [5] 95% | residual activity [6] 100% | residual activity [7] 94% | residual activity [8] 97% | residual activity [9] 92% | residual activity [10] 100% | residual activity [11] 100% | residual activity [12] 100% | residual activity [13] 100% | residual activity [14] 100% | residual activity [15] 82% | residual activity [16] 100% | residual activity [17] 83% | residual activity [18] 90% | residual activity [19] 100% | residual activity [20] 100% | residual activity [21] 100% | residual activity [22] 97% | residual activity [23] 100% | residual activity [24] 100% | residual activity [25] 100% | residual activity [26] 100% | residual activity [27] 100% | inhibition [28] -0.34% | residual activity [29] 100% | residual activity [30] 100% | residual activity [31] 94% | residual activity [32] 100% | residual activity [33] 100% | residual activity [34] 80% | residual activity [35] 100% | residual activity [36] 96% | residual activity [37] 96% | residual activity [38] 100%
